Active and inactive are the calls of the source.
Assays:
Type in all cases: functional
[1] = test system: Streptococcus viridans; assay: Antibacterial activity against Streptococcus viridans clinical isolate assessed as susceptibility level by broth microdilution method
[2] = test system: Streptococcus constellatus; assay: Antibacterial activity against Streptococcus constellatus clinical isolate assessed as susceptibility level by broth microdilution method
[3] = test system: Streptococcus oralis; assay: Antibacterial activity against Streptococcus oralis clinical isolate assessed as susceptibility level by broth microdilution method
[4] = test system: Streptococcus intermedius; assay: Antibacterial activity against Streptococcus intermedius clinical isolate assessed as susceptibility level by broth microdilution method
[5] = test system: Streptococcus mitis; assay: Antibacterial activity against Streptococcus mitis clinical isolate assessed as susceptibility level by broth microdilution method
[6] = test system: Streptococcus agalactiae; assay: Antibacterial activity against Streptococcus agalactiae group B clinical isolate assessed as susceptibility level by broth microdilution method
[7] = test system: Streptococcus pyogenes; assay: Antibacterial activity against Streptococcus pyogenes group A clinical isolate assessed as susceptibility level by broth microdilution method
[8] = test system: Streptococcus pneumoniae; assay: Antibacterial activity against multidrug-resistant Streptococcus pneumoniae clinical isolate assessed as susceptibility level by broth microdilution method
[9] = test system: Streptococcus pneumoniae; assay: Antibacterial activity against penicillin resistant Streptococcus pneumoniae clinical isolate assessed as susceptibility level by broth microdilution method
[10] = test system: Streptococcus pneumoniae; assay: Antibacterial activity against penicillin intermediate Streptococcus pneumoniae clinical isolate assessed as susceptibility level by broth microdilution method
[11] = test system: Staphylococcus saprophyticus; assay: Antibacterial activity against methicillin resistant coagulase-negative Staphylococcus saprophyticus clinical isolate assessed as susceptibility level by broth microdilution method
[12] = Antibacterial activity against methicillin resistant coagulase-negative Staphylococcus hominis subsp. novobiosepticus clinical isolate assessed as susceptibility level by broth microdilution method
[13] = test system: Staphylococcus haemolyticus; assay: Antibacterial activity against methicillin resistant coagulase-negative Staphylococcus haemolyticus clinical isolate assessed as susceptibility level by broth microdilution method
[14] = test system: Staphylococcus capitis; assay: Antibacterial activity against methicillin resistant coagulase-negative Staphylococcus capitis clinical isolate assessed as susceptibility level by broth microdilution method
[15] = test system: Staphylococcus auricularis; assay: Antibacterial activity against methicillin resistant coagulase-negative Staphylococcus auricularis clinical isolate assessed as susceptibility level by broth microdilution method
[16] = test system: Staphylococcus epidermidis; assay: Antibacterial activity against methicillin resistant Staphylococcus epidermidis clinical isolate assessed as susceptibility level by broth microdilution method
[17] = test system: Staphylococcus aureus; assay: Antibacterial activity against methicillin resistant Staphylococcus aureus clinical isolate assessed as susceptibility level by broth microdilution method
[18] = test system: Streptococcus viridans; assay: Antibacterial activity against Streptococcus viridans clinical isolate by broth microdilution method
[19] = test system: Streptococcus constellatus; assay: Antibacterial activity against Streptococcus constellatus clinical isolate by broth microdilution method
[20] = test system: Streptococcus oralis; assay: Antibacterial activity against Streptococcus oralis clinical isolate by broth microdilution method
[21] = test system: Streptococcus intermedius; assay: Antibacterial activity against Streptococcus intermedius clinical isolate by broth microdilution method
[22] = test system: Streptococcus mitis; assay: Antibacterial activity against Streptococcus mitis clinical isolate by broth microdilution method
[23] = test system: Streptococcus agalactiae; assay: Antibacterial activity against Streptococcus agalactiae group B clinical isolate by broth microdilution method
[24] = test system: Streptococcus pyogenes; assay: Antibacterial activity against Streptococcus pyogenes group A clinical isolate by broth microdilution method
[25] = test system: Streptococcus pneumoniae; assay: Antibacterial activity against multidrug-resistant Streptococcus pneumoniae clinical isolate by broth microdilution method
[26] = test system: Streptococcus pneumoniae; assay: Antibacterial activity against penicillin resistant Streptococcus pneumoniae clinical isolate by broth microdilution method
[27] = test system: Streptococcus pneumoniae; assay: Antibacterial activity against penicillin intermediate Streptococcus pneumoniae clinical isolate by broth microdilution method
[28] = test system: Staphylococcus saprophyticus; assay: Antibacterial activity against methicillin resistant coagulase-negative Staphylococcus saprophyticus clinical isolate by broth microdilution method
[29] = Antibacterial activity against methicillin resistant coagulase-negative Staphylococcus hominis subsp. novobiosepticus clinical isolate by broth microdilution method
[30] = test system: Staphylococcus haemolyticus; assay: Antibacterial activity against methicillin resistant coagulase-negative Staphylococcus haemolyticus clinical isolate by broth microdilution method
[31] = test system: Staphylococcus capitis; assay: Antibacterial activity against methicillin resistant coagulase-negative Staphylococcus capitis clinical isolate by broth microdilution method
[32] = test system: Staphylococcus auricularis; assay: Antibacterial activity against methicillin resistant coagulase-negative Staphylococcus auricularis clinical isolate by broth microdilution method
[33] = test system: Staphylococcus epidermidis; assay: Antibacterial activity against methicillin resistant Staphylococcus epidermidis clinical isolate by broth microdilution method
[34] = test system: Staphylococcus aureus; assay: Antibacterial activity against methicillin resistant Staphylococcus aureus clinical isolate by broth microdilution method; details: for MIC50 / MIC90: Staphylococcus aureus

CC[C@H]1OC(=O)[C@H](C)[C@@H](O[C@H]2C[C@@](C)(OC)[C@@H](O)[C@H](C)O2)[C@H](C)[C@@H](O[C@@H]2O[C@H](C)C[C@H](N(C)C)[C@H]2O)[C@](C)(O)C[C@@H](C)C(=O)[C@H](C)[C@@H](O)[C@]1(C)O [ERYTHROMYCIN]
63%: Activity [1] | Activity [2] | Activity [3] | Activity [4] | Activity [5]
62%: Activity [6]
> 1 µg/mL: MIC90 [23] | MIC90 [24] | MIC50 [27] | MIC90 [27]
89%: Activity [7]
42%: Activity [10]
2%: Activity [17] | Activity [34]
> 16 µg/mL: MIC50 [28] | MIC90 [28] | MIC50 [29] | MIC90 [29] | MIC50 [30] | MIC90 [30] | MIC50 [31] | MIC90 [31] | MIC50 [32] | MIC90 [32] | MIC50 [33] | MIC90 [33] | MIC50 [34] | MIC90 [34]
20%: Activity [9]
≤ 0.015 µg/mL: MIC [18] | MIC [19] | MIC [20] | MIC [21] | MIC [22]
inactive: MIC50 [18] | MIC90 [18] | MIC50 [19] | MIC90 [19] | MIC50 [20] | MIC90 [20] | MIC50 [21] | MIC90 [21] | MIC50 [22] | MIC90 [22]
15%: Activity [16]
0.06 µg/mL: MIC50 [23]
18%: Activity [11] | Activity [12] | Activity [13] | Activity [14] | Activity [15]
13%: Activity [8]
0.03 µg/mL: MIC50 [24] | MIC [25] | MIC [26]

CC[C@H]1OC(=O)[C@H](C)C(=O)[C@H](C)[C@@H](O[C@@H]2O[C@H](C)C[C@H](N(C)C)[C@H]2O)[C@](C)(OC)C[C@@H](C)C(=O)[C@H](C)[C@H]2N(CCCCn3cnc(-c4cccnc4)c3)C(=O)O[C@]12C [TELITHROMYCIN]
16 µg/mL: MIC90 [34]
100%: Activity [10]
0.015 µg/mL: MIC50 [23] | MIC50 [24] | MIC90 [24]
0.06 µg/mL: MIC50 [25] | MIC50 [26]
0.12 µg/mL: MIC90 [27]
83%: Activity [17] | Activity [34]
29%: Activity [11] | Activity [12] | Activity [13] | Activity [14] | Activity [15]
43%: Activity [16]
0.5 µg/mL: MIC90 [25] | MIC90 [26] | MIC50 [33]
0.03 µg/mL: MIC50 [27]
inactive: MIC50 [18] | MIC90 [18] | MIC50 [19] | MIC90 [19] | MIC50 [20] | MIC90 [20] | MIC50 [21] | MIC90 [21] | MIC50 [22] | MIC90 [22]
0.25 µg/mL: MIC90 [23] | MIC50 [34]
0.004 µg/mL: MIC [18] | MIC [19] | MIC [20] | MIC [21] | MIC [22]
> 8 µg/mL: MIC50 [28] | MIC90 [28] | MIC50 [29] | MIC90 [29] | MIC50 [30] | MIC90 [30] | MIC50 [31] | MIC90 [31] | MIC50 [32] | MIC90 [32] | MIC90 [33]
